From patent US20260137819A1 (Radionetics Oncology, Inc., priority 2022, published 2026) come the findings set out here.

Starred links: 1 amine or outer side, 2 acyl side, 3 side chain; linkers in the order of their positions; H or OH if unused. Non-standard residues stand in square brackets, D forms with d. Residues, ends and D or L forms follow the SMILES beside them. Groups on a side chain read outwards from the residue. *: point of attachment. X1 = COc1cc2c(cc1-c1cccc(N*)c1)-c1c(c(C(=O)N3CCOCC3(C)C)nn1-c1cc(Cl)cc(Cl)c1)CO2; DOTA = O=C(O)CN1CCN(CC(=O)O)CCN(CC(=O)*)CCN(CC(=O)O)CC1; Suc = O=C(CCC(=O)[*:2])[*:1]; Sar = CNCC(=O)O

One experiment addresses T1, human follicle-stimulating hormone receptor (FSHR) (Homo sapiens, UniProt P23945).
T1 construct: host or cells: CHO-K1
T1 sequence (P23945 18-695): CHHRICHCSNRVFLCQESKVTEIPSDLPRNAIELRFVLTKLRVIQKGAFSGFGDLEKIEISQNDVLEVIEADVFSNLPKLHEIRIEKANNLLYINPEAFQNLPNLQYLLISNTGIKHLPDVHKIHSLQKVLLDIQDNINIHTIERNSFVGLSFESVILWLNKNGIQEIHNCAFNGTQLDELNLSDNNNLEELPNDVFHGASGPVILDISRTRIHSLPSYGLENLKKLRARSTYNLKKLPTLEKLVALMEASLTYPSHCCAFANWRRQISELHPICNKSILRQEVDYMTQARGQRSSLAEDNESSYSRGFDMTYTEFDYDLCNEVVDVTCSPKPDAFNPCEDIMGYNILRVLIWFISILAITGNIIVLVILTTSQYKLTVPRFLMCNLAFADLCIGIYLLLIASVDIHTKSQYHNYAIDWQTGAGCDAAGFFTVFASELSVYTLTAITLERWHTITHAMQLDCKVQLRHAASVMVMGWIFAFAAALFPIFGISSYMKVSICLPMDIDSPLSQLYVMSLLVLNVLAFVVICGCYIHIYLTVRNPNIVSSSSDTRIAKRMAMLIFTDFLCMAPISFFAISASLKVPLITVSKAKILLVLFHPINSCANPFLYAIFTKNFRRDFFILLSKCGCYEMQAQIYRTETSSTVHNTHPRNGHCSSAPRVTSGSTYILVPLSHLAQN
Kind of experiment: Measurement of agonist cAMP production by activation of human FSHR. The format is cell-based. The conditions noted are these: CHO-K1 human FSHR cells, 30 minutes at 37° C., HTRF cAMP kit; read-out: hFSHR Agonist cAMP EC50. The procedure, abridged: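 cAMP output was measured by HTRF after 30 min at 37 °C agonist exposure (0–10,000 nM final) in stably FSHR-transfected CHO-K1 cells. Lysate cAMP was read off a standard curve and fitted to obtain half-maximal EC50.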
With `COc1cc2c(cc1-c1cccc(NC(=O)CCC(=O)NCCCC[C@@H](NC(=O)[C@@H](CCC(=O)O)NC(=O)[C@@H](CCC(=O)O)NC(=O)[C@@H](CCC(=O)O)NC(=O)[C@@H](CCC(=O)O)NC(=O)[C@@H](C)NC(=O)CN3CCN(CC(=O)O)CCN(CC(=O)O)CCN(CC(=O)O)CC3)C(=O)N[C@H](C)C(N)=O)c1)-c1c(c(C(=O)N3CCOCC3(C)C)nn1-c1cc(Cl)cc(Cl)c1)CO2` [Compound 90, 2,2′,2″-(10-((4R,7R,10R,13R,16R,19R)-19-(((R)-1-amino-1-oxopropan-2yl)carbamoyl)-7,10,13,16-tetrakis(2-carboxyethyl)-28-((3-(1-(3,5-dichlorophenyl)-3-(3,3-dimethylmorpholine-4-carbonyl)-7-methoxy-1,4-dihydrochromeno|4,3-clpyrazol-8-yl)phenyl)amino)-4-methyl-2,5,8,11,14,17,25,28-octaoxo-3,6,9,12,15,18,24-heptaazaoctacosyl)-1,4,7,10-tetraazacyclododecane-1,4,7-triyl)triacetic acid] ({DOTA}-[dA][dE][dE][dE][dE][dK]([Suc-X1])[dA]-NH2), the EC50 – broadly, the concentration needed to bring the measured effect to its halfway point – lay within 10 to 100 nM.
Same read-out and setting: as for `COc1cc2c(cc1-c1cccc(NC(=O)CCC(=O)NCCCC[C@@H](NC(=O)[C@@H](C)NC(=O)[C@@H](C)NC(=O)[C@@H](CC(N)=O)NC(=O)[C@@H](CC(=O)O)NC(=O)[C@@H](CCCNC(=N)N)NC(=O)[C@@H](C)NC(=O)CN3CCN(CC(=O)O)CCN(CC(=O)O)CCN(CC(=O)O)CC3)C(N)=O)c1)-c1c(c(C(=O)N3CCOCC3(C)C)nn1-c1cc(Cl)cc(Cl)c1)CO2` [Compound 91] ({DOTA}-[dA][dR][dD][dN][dA][dA][dK]([Suc-X1])-NH2), the figure is 10 to 100 nM; as for `COc1cc2c(cc1-c1cccc(NC(=O)CCC(=O)N[C@H](C)C(=O)N[C@H](CCC(=O)O)C(=O)N[C@H](CCC(=O)O)C(=O)N[C@H](CCC(=O)O)C(=O)N[C@H](CCC(=O)O)C(=O)N[C@H](CCCCNC(=O)CN3CCN(CC(=O)O)CCN(CC(=O)O)CCN(CC(=O)O)CC3)C(=O)N[C@H](C)C(N)=O)c1)-c1c(c(C(=O)N3CCOCC3(C)C)nn1-c1cc(Cl)cc(Cl)c1)CO2` [Compound 92, 2,2′,2″-(10-((8R,11R,14R,17R,20R,23R)-8-(((R)-1-amino-1-oxopropan-2yl)carbamoyl)-11,14,17,20-tetrakis(2-carboxyethyl)-28-((3-(1-(3,5-dichlorophenyl)-3-(3,3-dimethylmorpholine-4-carbonyl)-7-methoxy-1,4-dihydrochromeno[4,3-c]pyrazol-8-yl)phenyl)amino)-23-methyl-2,10,13,16,19,22,25,28-octaoxo-3,9,12,15,18,21,24-heptaazaoctacosyl)-1,4,7,10-tetraazacyclododecane-1,4,7-triyl)triacetic acid] ({X1-Suc}-[dA][dE][dE][dE][dE][dK](DOTA)[dA]-NH2), 10 to 100 nM.
The same measure, in the same setting: with `COc1cc2c(cc1-c1cncc(NC(=O)CCNC(=O)[C@@H](CC(=O)O)NC(=O)[C@@H](CC(=O)O)NC(=O)CC[C@@H](NC(=O)CN3CCN(CC(=O)O)CCN(CC(=O)O)CCN(CC(=O)O)CC3)C(=O)O)c1)-c1c(c(C(=O)N3CCOCC3(C)C)nn1-c1cc(Cl)cc(Cl)c1)CO2` [Compound 93] the figure was 10 to 100 nM; with `COc1cc2c(cc1-c1cncc(NC(=O)CCNC(=O)[C@@H](CC(=O)O)NC(=O)[C@@H](CC(=O)O)NC(=O)CN3CCN(CC(=O)O)CCN(CC(=O)O)CCN(CC(=O)O)CC3)c1)-c1c(c(C(=O)N3CCOCC3(C)C)nn1-c1cc(Cl)cc(Cl)c1)CO2` [Compound 94], 10 to 100 nM.
The same measure, in the same setting: with `COc1cc2c(cc1-c1cccc(NC(=O)CCC(=O)NCCCC[C@@H](NC(=O)[C@@H](CO)NC(=O)[C@@H](CC(N)=O)NC(=O)[C@@H](C)NC(=O)CN3CCN(CC(=O)O)CCN(CC(=O)O)CCN(CC(=O)O)CC3)C(=O)N[C@H](CC(N)=O)C(=O)N[C@H](CO)C(=O)N[C@H](C)C(N)=O)c1)-c1c(c(C(=O)N3CCOCC3(C)C)nn1-c1cc(Cl)cc(Cl)c1)CO2` [Compound 97] ({DOTA}-[dA][dN][dS][dK]([Suc-X1])[dN][dS][dA]-NH2) the figure was 10 to 100 nM.
As to `COc1cc2c(cc1-c1cccc(NC(=O)CCC(=O)N(C)CC(=O)N(C)CC(=O)N(C)CC(=O)N[C@H](CCCCNC(=O)CN3CCN(CC(=O)O)CCN(CC(=O)O)CCN(CC(=O)O)CC3)C(=O)N[C@H](CCC(=O)O)C(=O)N[C@H](Cc3ccc(O)cc3)C(=O)N[C@H](CCCCN)C(=O)N[C@H](CCC(=O)O)C(=O)N[C@H](CCC(=O)O)C(=O)N[C@H](CCC(=O)O)C(=O)N[C@H](CCC(=O)O)C(=O)N[C@H](CCCCN)C(N)=O)c1)-c1c(c(C(=O)N3CCOCC3(C)C)nn1-c1cc(Cl)cc(Cl)c1)CO2` [Compound 98] ({X1-Suc}-[Sar][Sar][Sar][dK](DOTA)[dE][dY][dK][dE][dE][dE][dE][dK]-NH2), the EC50 lay in the range of 10 to 100 nM.
Still for that read-out and setting: with `COc1cc2c(cc1-c1cncc(NC(=O)CCNC(=O)[C@@H](CC(=O)O)NC(=O)[C@@H](CC(=O)O)NC(=O)[C@H](N)CCCNC(=O)CN3CCN(CC(=O)O)CCN(CC(=O)O)CCN(CC(=O)O)CC3)c1)-c1c(c(C(=O)N3CCOCC3(C)C)nn1-c1cc(Cl)cc(Cl)c1)CO2` [Compound 99, 2,2′,2″-(10-((7R,10R,13R)-7-amino-10,13-bis(carboxymethyl)-18-((5-(1-(3,5dichlorophenyl)-3-(3,3-dimethylmorpholine-4-carbonyl)-7-methoxy-1,4-dihydrochromeno|4,3-c|pyrazol-8-yl)pyridin-3-yl)amino)-2,8,11,14,18-pentaoxo-3,9,12,15-tetraazaoctadecyl)-1,4,7,10-tetraazacyclododecane-1,4,7-triyl)triacetic acid] the figure was 10 to 100 nM.

The experiment is the same for the next values; noted with them: hFSHR Agonist cAMP EC50, CHO-K1 human FSHR cells, 30 minutes at 37° C., HTRF cAMP kit.
In the case of `COc1cc2c(cc1-c1cccc(NC(=O)CCC(=O)NCCCC[C@@H](NC(=O)[C@@H](C)NC(=O)[C@@H](CCC(=O)O)NC(=O)[C@@H](C)NC(=O)[C@@H](CCC(=O)O)NC(=O)[C@@H](C)NC(=O)CN3CCN(CC(=O)O)CCN(CC(=O)O)CCN(CC(=O)O)CC3)C(=O)N[C@H](C)C(N)=O)c1)-c1c(c(C(=O)N3CCOCC3(C)C)nn1-c1cc(Cl)cc(Cl)c1)CO2` [Compound 95], the EC50 is 10 to 100 nM.
